Columns and labels:
Type in all cases: in vivo
rice (Oryza sativa) = test: Test B flooded paddy test, rice; conditions: applied to paddy water, visual rating after 13 to 15 days, scale 0 (no effect) to 100 (complete control)
Outline: (§1)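 Greenhouse pots flooded to 3 cm above soil at time of treatment received compound via the water, which stayed at that level.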

corn (Zea mays) = test: Test A postemergence, corn; conditions: visual injury, 0 to 100 scale (0 no effect, 100 complete control), approximately 10 days
Outline: (§2)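 Greenhouse test: compounds in solvent with surfactant sprayed onto loam–sand soil after planting (preemergence) or onto plants 2-10 cm at the one- to two-leaf stage (postemergence). Injury visually rated versus untreated controls after about 10 days on a 0-100 scale (100 = complete control).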

[1] = test system: pigweed (Amaranthus retroflexus); test: Test A preemergence, pigweed; conditions: 0 to 100 scale (0 no effect, 100 complete control)
Outline: as §2

[2] = test system: barnyardgrass (Echinochloa crus-galli); test: Test A preemergence, barnyardgrass; conditions: 0 to 100 scale (0 no effect, 100 complete control)
Outline: as §2

[3] = test system: galium (catchweed bedstraw, Galium aparine); test: Test A postemergence, galium; conditions: visual injury, 0 to 100 scale (0 no effect, 100 complete control), approximately 10 days
Outline: as §2

[4] = test system: sedge, umbrella (small-flower umbrella sedge, Cyperus difformis); test: Test B flooded paddy test, umbrella sedge; conditions: applied to paddy water, visual rating after 13 to 15 days, scale 0 (no effect) to 100 (complete control)
Outline: as §1

[5] = test system: pigweed (Amaranthus retroflexus); test: Test A postemergence, pigweed; conditions: visual injury, 0 to 100 scale (0 no effect, 100 complete control), approximately 10 days
Outline: as §2

[6] = test system: ragweed (common ragweed, Ambrosia elatior); test: Test A preemergence, ragweed; conditions: 0 to 100 scale (0 no effect, 100 complete control)
Outline: as §2

kochia (Kochia scoparia) [7] = test: Test A postemergence, kochia; conditions: visual injury, 0 to 100 scale (0 no effect, 100 complete control), approximately 10 days
Outline: as §2

[8] = test system: wheat (Triticum aestivum); test: Test A postemergence, wheat; conditions: visual injury, 0 to 100 scale (0 no effect, 100 complete control), approximately 10 days
Outline: as §2

[9] = test system: barnyardgrass (Echinochloa crus-galli); test: Test A postemergence, barnyardgrass; conditions: visual injury, 0 to 100 scale (0 no effect, 100 complete control), approximately 10 days
Outline: as §2

kochia (Kochia scoparia) [10] = test: Test A preemergence, kochia; conditions: 0 to 100 scale (0 no effect, 100 complete control)
Outline: as §2

[11] = test system: ducksalad (Heteranthera limosa); test: Test B flooded paddy test, ducksalad; conditions: applied to paddy water, visual rating after 13 to 15 days, scale 0 (no effect) to 100 (complete control)
Outline: as §1

[12] = test system: blackgrass (Alopecurus myosuroides); test: Test A postemergence, blackgrass; conditions: visual injury, 0 to 100 scale (0 no effect, 100 complete control), approximately 10 days
Outline: as §2

[13] = test system: foxtail, giant (Setaria faberii); test: Test A preemergence, giant foxtail; conditions: 0 to 100 scale (0 no effect, 100 complete control)
Outline: as §2

[14] = test system: ryegrass, Italian (Lolium multiflorum); test: Test A postemergence, Italian ryegrass; conditions: visual injury, 0 to 100 scale (0 no effect, 100 complete control), approximately 10 days
Outline: as §2

[15] = test system: ragweed (common ragweed, Ambrosia elatior); test: Test A postemergence, ragweed; conditions: visual injury, 0 to 100 scale (0 no effect, 100 complete control), approximately 10 days
Outline: as §2

[16] = test system: ryegrass, Italian (Lolium multiflorum); test: Test A preemergence, Italian ryegrass; conditions: 0 to 100 scale (0 no effect, 100 complete control)
Outline: as §2

[17] = test system: foxtail, giant (Setaria faberii); test: Test A postemergence, giant foxtail; conditions: visual injury, 0 to 100 scale (0 no effect, 100 complete control), approximately 10 days
Outline: as §2

[18] = test system: barnyardgrass (Echinochloa crus-galli); test: Test B flooded paddy test, barnyardgrass; conditions: applied to paddy water, visual rating after 13 to 15 days, scale 0 (no effect) to 100 (complete control)
Outline: as §1

| Compound | Plant response rating, Corn (corn (Zea mays); 125 g ai/ha) | Plant response rating, Corn (corn (Zea mays); 500 g ai/ha) | Plant response rating, Pigweed ([1]; 125 g ai/ha) | Plant response rating, Pigweed ([1]; 500 g ai/ha) | Plant response rating, Barnyardgrass ([2]; 125 g ai/ha) | Plant response rating, Galium ([3]; 125 g ai/ha) | Plant response rating, Galium ([3]; 500 g ai/ha) | Plant response rating, Pigweed ([5]; 125 g ai/ha) | Plant response rating, Pigweed ([5]; 500 g ai/ha) | Plant response rating, Ragweed ([6]; 125 g ai/ha) | Plant response rating, Ragweed ([6]; 500 g ai/ha) | Plant response rating, Kochia (kochia (Kochia scoparia) [7]; 125 g ai/ha) | Plant response rating, Kochia (kochia (Kochia scoparia) [7]; 500 g ai/ha) | Plant response rating, Wheat ([8]; 125 g ai/ha) | Plant response rating, Wheat ([8]; 500 g ai/ha) | Plant response rating, Barnyardgrass ([9]; 125 g ai/ha) | Plant response rating, Barnyardgrass ([9]; 500 g ai/ha) | Plant response rating, Kochia (kochia (Kochia scoparia) [10]; 125 g ai/ha) | Plant response rating, Kochia (kochia (Kochia scoparia) [10]; 500 g ai/ha) | Plant response rating, Blackgrass ([12]; 125 g ai/ha) | further results |
| --- | --- | --- | --- | --- | --- | --- | --- | --- | --- | --- | --- | --- | --- | --- | --- | --- | --- | --- | --- | --- | --- |
| O=C1NCC(c2cccc(Oc3ccccn3)c2)C1C(=O)Nc1cccc(F)c1F (centres unmarked) [Compound 68] | 0 | 0 | 0 | 0 | 20 | 0 | 0 | 0 | 0 | 0 | 0 | 0 | 0 | 0 | 0 | 10 | 40 | 0 | 0 | 0 | Plant response rating, Rice (Flood) (rice (Oryza sativa); 500 g ai/ha): 0; Plant response rating, Barnyardgrass ([2]; 500 g ai/ha): 50; Plant response rating, Sedge, Umbrella (Flood) ([4]; 500 g ai/ha): 0; Plant response rating, Ducksalad (Flood) ([11]; 500 g ai/ha): 80; Plant response rating, Blackgrass ([12]; 500 g ai/ha): 20; Plant response rating, Foxtail, Giant ([13]; 125 g ai/ha): 60; Plant response rating, Foxtail, Giant ([13]; 500 g ai/ha): 90; Plant response rating, Ryegrass, Italian ([14]; 125 g ai/ha): 0; Plant response rating, Ryegrass, Italian ([14]; 500 g ai/ha): 0; Plant response rating, Ragweed ([15]; 125 g ai/ha): 0; Plant response rating, Ragweed ([15]; 500 g ai/ha): 0; Plant response rating, Ryegrass, Italian ([16]; 125 g ai/ha): 0; Plant response rating, Ryegrass, Italian ([16]; 500 g ai/ha): 0; Plant response rating, Foxtail, Giant ([17]; 125 g ai/ha): 0; Plant response rating, Foxtail, Giant ([17]; 500 g ai/ha): 60; Plant response rating, Barnyardgrass (Flood) ([18]; 500 g ai/ha): 20 |
| CN1CC(c2cccc(Sc3ccccc3)c2)C(C(=O)Nc2cccc(F)c2F)C1=O (single isomer, unassigned) [Compound 51] | 0 | 30 | 0 | 0 | 20 | 40 | 50 | 0 | 0 | 0 | 0 | 0 | 30 | 0 | 20 | 0 | 30 | 20 | 50 | 0 | Plant response rating, Rice (Flood) (rice (Oryza sativa); 250 g ai/ha): 0; Plant response rating, Sedge, Umbrella (Flood) ([4]; 250 g ai/ha): 0; Plant response rating, Ducksalad (Flood) ([11]; 250 g ai/ha): 40; Plant response rating, Blackgrass ([12]; 500 g ai/ha): 0; Plant response rating, Foxtail, Giant ([13]; 125 g ai/ha): 90; Plant response rating, Foxtail, Giant ([13]; 500 g ai/ha): 90; Plant response rating, Ryegrass, Italian ([14]; 125 g ai/ha): 20; Plant response rating, Ryegrass, Italian ([14]; 500 g ai/ha): 30; Plant response rating, Ragweed ([15]; 125 g ai/ha): 0; Plant response rating, Ragweed ([15]; 500 g ai/ha): 20; Plant response rating, Ryegrass, Italian ([16]; 125 g ai/ha): 0; Plant response rating, Ryegrass, Italian ([16]; 500 g ai/ha): 20; Plant response rating, Foxtail, Giant ([17]; 125 g ai/ha): 10; Plant response rating, Foxtail, Giant ([17]; 500 g ai/ha): 40; Plant response rating, Barnyardgrass (Flood) ([18]; 250 g ai/ha): 0 |
